ChEMBL document CHEMBL1681696, “Discovery of benzimidazole pyrrolidinyl amides as prolylcarboxypeptidase inhibitors” (Bioorg Med Chem Lett, 2011)

Key:
[1] = Oral bioavailability in mouse at 2 mg/kg; format: ADME, organism-based; details: in vivo
[2] = Volume of distribution at steady state in mouse at 1 mg/kg, iv and 2 mg/kg, po; format: ADME, organism-based; details: in vivo, read-out: Vdss
[3] = Half life in mouse at 1 mg/kg, iv and 2 mg/kg, po; format: ADME, organism-based; details: in vivo
[4] = Clearance in mouse at 1 mg/kg, iv and 2 mg/kg, po; format: ADME, organism-based; details: in vivo
[5] = target: T1, Lysosomal Pro-X carboxypeptidase (Mus musculus, UniProt Q7TMR0); test: Inhibition of PrCP in mouse plasma assessed as angiotensin 3 cleavage; format: cell-free
T1 sequence (Q7TMR0 whole entry): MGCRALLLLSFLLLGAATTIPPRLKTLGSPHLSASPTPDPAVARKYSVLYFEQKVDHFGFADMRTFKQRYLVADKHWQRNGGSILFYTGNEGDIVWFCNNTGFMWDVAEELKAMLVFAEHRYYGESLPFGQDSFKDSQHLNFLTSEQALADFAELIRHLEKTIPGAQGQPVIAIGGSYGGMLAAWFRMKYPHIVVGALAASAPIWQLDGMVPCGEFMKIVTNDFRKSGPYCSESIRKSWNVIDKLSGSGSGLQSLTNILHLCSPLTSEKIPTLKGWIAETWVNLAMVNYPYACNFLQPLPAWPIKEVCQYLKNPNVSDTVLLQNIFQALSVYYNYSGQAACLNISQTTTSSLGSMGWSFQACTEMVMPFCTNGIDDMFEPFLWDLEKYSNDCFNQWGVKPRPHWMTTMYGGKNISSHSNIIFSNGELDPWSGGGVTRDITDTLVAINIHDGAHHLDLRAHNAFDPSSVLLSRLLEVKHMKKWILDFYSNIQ

[6] = target: T1, Lysosomal Pro-X carboxypeptidase; test: Inhibition of mouse PrCP
[7] = target: T2, Lysosomal Pro-X carboxypeptidase (Homo sapiens) (UniProt P42785); test: Inhibition of human PrCP at 5 uM
T2 sequence (whole entry): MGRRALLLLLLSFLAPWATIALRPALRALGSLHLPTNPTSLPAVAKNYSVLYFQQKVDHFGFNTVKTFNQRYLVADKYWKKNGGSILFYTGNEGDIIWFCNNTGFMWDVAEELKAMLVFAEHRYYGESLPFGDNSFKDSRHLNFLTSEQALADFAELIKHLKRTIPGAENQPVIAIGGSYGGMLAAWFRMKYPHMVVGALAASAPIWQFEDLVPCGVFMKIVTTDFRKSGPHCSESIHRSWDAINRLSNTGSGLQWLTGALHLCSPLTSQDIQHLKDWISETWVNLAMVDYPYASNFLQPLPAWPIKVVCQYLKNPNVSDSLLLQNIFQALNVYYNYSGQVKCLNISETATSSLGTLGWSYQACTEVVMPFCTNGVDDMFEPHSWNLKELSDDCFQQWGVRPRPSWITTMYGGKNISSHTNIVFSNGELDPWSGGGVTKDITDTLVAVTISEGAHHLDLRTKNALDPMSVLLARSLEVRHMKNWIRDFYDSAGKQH

Work on `CC(C)(CCCC(=O)N1CCC[C@H]1c1nc2cc(Cl)c(Cl)cc2[nH]1)N1CCC(c2nc(-c3ccccn3)no2)CC1` yielded a bioavailability [1] of 3%, a Vd [2] of 12 L/kg and a half-life [3] of 3.1 h. The clearance [4] was 60 mL/min/kg, the IC50 [5] was 113 nM and the IC50 [6] was 19 nM.

Work on `O=C(CCN1CCC(c2cc[nH]n2)CC1)N1CCC[C@H]1c1nc2cc(Cl)c(Cl)cc2[nH]1` yielded an IC50 [5] of 290 nM.

In the case of `O=C(CCN1CCC(n2ncnn2)CC1)N1CCC[C@H]1c1nc2cc(Cl)c(Cl)cc2[nH]1`, the IC50 [5] is reported as 2900 nM.

Compound `O=C(CCN1CCC(c2nc(-c3cnccn3)no2)CC1)N1CCC[C@H]1c1nc2cc(Cl)c(Cl)cc2[nH]1` has an IC50 [5] of 435 nM.

`O=C(CCN1CCC(c2ccccc2)C1)N1CCC[C@H]1c1nc2cc(Cl)c(Cl)cc2[nH]1` (stereo not given in full) showed an inhibition [7] of 93%.

`O=C(CCN1CCC(c2cc(-c3ccncc3)[nH]n2)CC1)N1CCC[C@H]1c1nc2cc(Cl)c(Cl)cc2[nH]1` gave an IC50 [5] of 485 nM.

For `CS(=O)(=O)c1ccc(-c2noc(C3CCN(CCC(=O)N4CCC[C@H]4c4nc5cc(Cl)c(Cl)cc5[nH]4)CC3)n2)cc1`, the bioavailability [1] was 14%, the Vd [2] was 7.7 L/kg and the half-life [3] was 2.2 h. For the same compound, the clearance [4] was 54 mL/min/kg, the IC50 [5] was 10 nM and the IC50 [6] was 0.41 nM.

Work on `O=C(CCN1CCC(c2nc(-c3ncccn3)no2)CC1)N1CCC[C@H]1c1nc2cc(Cl)c(Cl)cc2[nH]1` yielded an IC50 [5] of 745 nM.

For `O=C(CCN1CCC(c2nc(-c3cccnc3)no2)CC1)N1CCC[C@H]1c1nc2cc(Cl)c(Cl)cc2[nH]1`, the IC50 [5] was 155 nM.

Work on `O=C(CCN1CCN(c2ccccc2)CC1)N1CCC[C@H]1c1nc2cc(Cl)c(Cl)cc2[nH]1` yielded an IC50 [5] of over 10000 nM.
